59 compounds from the METLIN SMRT retention time set (Domingo-Almenara et al. 2019) can be followed below.

The series can be described thus: gradient 5% acetonitrile 3 min, to 50% in 2 min, to 85% in 15 min, held 3 min, 100 µL/min. The settings on record: column: Zorbax Extend-C18 2.1 x 50 mm; eluents: water / acetonitrile, 0.1% formic acid. The essentials:
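Mixtures of ~100 pure standards were chromatographed on a Zorbax Extend-C18 column (2.1 × 50 mm, 1.8 μm) at 100 μL/min using water and acetonitrile, each with 0.1% formic acid. Detection used a quadrupole time-of-flight mass spectrometer in positive and negative ionization mode, and data collection spanned 3 months. Retention time was obtained from adduct peaks picked computationally and each checked manually.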
In the case of `COc1ccc(C)cc1NC(=O)N1CCC2(CC1)NC(=O)c1ccccc1N2C`, the RP-LC retention time amounted to 807 s.
`CCNC(=O)CCc1cc2ccccc2[nH]c1=O`: the RP-LC retention time was 623 s.
As to `O=C(CN1C(=O)CC(c2ccccc2)S(=O)(=O)c2ccccc21)Nc1cccc(F)c1` (centres undefined), the RP-LC retention time stood at 863 s.
On to `CC(C)(C)CC(=O)N1CC2CN(S(=O)(=O)c3cccc(F)c3)CC(C1)O2`, for which the RP-LC retention time is 834 s.
Compound `O=C(Nc1ccc(Cl)cc1)c1oc2ccccc2c1NC(=O)C1CC1` returned an RP-LC retention time of 1080 s.
Compound `Cc1cc(C)cc(NC(=O)c2cn3c(n2)CCCC3)c1` returned an RP-LC retention time of 644 s.
Regarding `O=C(CC1=CCCCC1)N1CC(F)(F)C[C@H]1c1nc(C2CC2)no1`, the RP-LC retention time stood at 1000 s.
The compound `COc1ccc(C2C(C(=O)Nc3cc(OC)c(OC)c(OC)c3)c3ccccc3C(=O)N2C)cc1` (centres undefined) registered an RP-LC retention time of 815 s.
`Cc1ccc(-n2ncc3c(=O)n(Cc4nc(-c5ccc(Cl)cc5)no4)cnc32)cc1` gave an RP-LC retention time of 1160 s.
As for `COc1ccc(-c2nnc(-c3ccc(C)c(S(=O)(=O)N4CCCC4)c3)o2)cc1`, the figure is 1030 s; as for `CCc1ccccc1NC(=O)N1CCCC1c1nc(-c2cccc(OC)c2)no1` (centres undefined), 957 s; as for `CCOC(=O)N1CCN(c2ccc(C(F)(F)F)cc2[N+](=O)[O-])CC1`, 967 s.
`O=C(c1cc(-c2ccncc2)n[nH]1)N1CCN(C(=O)c2cccc3[nH]ccc23)CC1` had an RP-LC retention time of 571 s.
As for `CCCS(=O)(=O)c1nc2ccc(NS(=O)(=O)c3ccc4c(c3)CCC4)cc2s1`, the figure is 999 s.
As for `CC1CCN(C(=O)c2cn(-c3ccc(-c4nc(C5CC5)no4)cn3)cn2)CC1`, the figure is 912 s.
As for `CCNc1cc(N2CCCC(CCC(=O)N3CCCC(CN4CCCC4)C3)C2)ncn1` (centres undefined), the RP-LC retention time was 571 s.
Regarding `CCOCCCNC(=O)C(C)Oc1ccc(=O)n(-c2ccc(C)c(C)c2)n1` (centres undefined), the RP-LC retention time amounted to 871 s.
As for `O=C(NCc1ccc(Cl)cc1)C1CCN(c2cn[nH]c(=O)c2)CC1`, the RP-LC retention time worked out at 669 s.
The compound `O=C(NCc1ccccc1C(F)(F)F)C1=C2CCCN2c2ccccc2S1(=O)=O` gave an RP-LC retention time of 916 s.
In turn, `CC1(C(=O)NCc2ccc(F)cc2)CCN(S(=O)(=O)c2ccc(Br)cc2)CC1` registered an RP-LC retention time of 1000 s.
Compound `Cc1nc(N2CCOCC2)c2c(C(=O)NCc3ccc(F)cc3)c(C)oc2n1` registered an RP-LC retention time of 702 s.
For the compound `Cc1ccc2nc(C)cc(C(=O)NC3CC3)c2c1`, the RP-LC retention time is 586 s.
The compound `Cc1ccc(C)c(Cn2nc3ccc(S(=O)(=O)N4CCCCCC4)cn3c2=O)c1` showed an RP-LC retention time of 1090 s.
Compound `O=C(c1ccccc1F)N1CCc2nc(-c3ccccc3)ncc2C1` gave an RP-LC retention time of 883 s.
With `CCCn1c(CCNC(=O)c2ccccc2)nc2cccnc21`, the RP-LC retention time worked out at 633 s.
For `O=C(c1ccc(F)cc1F)N1CCC(n2cnnc2C2CC2)CC1`, the RP-LC retention time stood at 633 s.
As for `Cc1cc(-c2nnc(-c3ccccc3)o2)c(C)n1CC(=O)Nc1ccc2c(c1)OCO2`, the figure is 596 s; as for `O=C(Cc1cccs1)N1CCN(c2ccc(-c3ccco3)nn2)CC1`, 734 s; as for `Cc1cccc(-c2noc(-c3nn(CC(=O)NCC4CCCO4)c4ccccc34)n2)c1` (centres undefined), 1040 s.
As for `O=C(Cc1nnc(-c2ccc3ncccc3c2)o1)Nc1ccc(Cl)cc1`, the figure is 760 s.
In turn, `CCCn1cc(S(=O)(=O)NCc2ccccc2)c2cccnc21` gave an RP-LC retention time of 863 s.
The compound `CC(C)NC(=O)CSc1nnc2c3cc(-c4ccc(F)cc4)nn3ccn12` returned an RP-LC retention time of 735 s.
`CN(C)CCNc1ncnc2c1cnn2-c1cccc(Cl)c1` gave an RP-LC retention time of 648 s.
For `O=C(C1CCN(c2nc3ccc(-c4ccsc4)nc3s2)CC1)N1CCCCC1`, the RP-LC retention time is 911 s.
Compound `COc1ccc(Cn2c(=O)c3sccc3n(Cc3nc(-c4ccc(F)c(Cl)c4)no3)c2=O)cc1` displayed an RP-LC retention time of 1190 s.
As for `Cc1ccn2cc(-c3ccc(C)c(NS(=O)(=O)c4ccc(C)c(C)c4)c3)nc2c1`, the figure is 729 s; as for `O=C(Nc1ccccc1F)N1CC(F)(F)C[C@H]1CN1CCCC1`, 620 s.
With `CCCCOc1ccc(NC(N)=Nc2ccc(Cl)cc2)cc1`, the RP-LC retention time was 778 s.
The compound `O=c1c2ccccc2n(Cc2nc(-c3ccc(F)cc3)no2)c(=O)n1Cc1ccco1` yielded an RP-LC retention time of 1050 s.
As for `Cc1noc2ncn(CC(=O)NCc3cccc(Br)c3)c(=O)c12`, the figure is 779 s; as for `O=C(c1ccc(Br)o1)N1CCN(c2nc3ccccc3nc2C(F)(F)F)CC1`, 1140 s.
As for `CCCNC(=O)N1CCCC(C)(C(=O)NCc2ccc(C)cc2)C1` (centres undefined), the figure is 799 s; as for `COCCCNC(=O)CN1c2ccc(F)cc2-c2ccccc2S1(=O)=O`, 756 s; as for `CCc1ccc(OCC(=O)Nc2nnc(SCc3nnc(-c4ccccc4)o3)s2)cc1`, 1010 s.
As for `CCn1ncc(CN2CC(c3nc(CCOCc4ccccc4)no3)C2)c1C`, the figure is 662 s; as for `Cc1oc(-c2cccc(Cl)c2)nc1Cn1nnc(-c2nc(-c3cccc(F)c3)no2)c1C`, 1360 s.
For the compound `CNC(=O)c1nn(C)c2c1C(C)(C)Cc1cnc(Nc3ccc(N4CCN(C)CC4)cc3)nc1-2`, the RP-LC retention time was determined as 656 s.
In the case of `Cc1ccc(S(=O)(=O)N2CCc3nc(-c4ccc(Cl)cc4)ncc3C2)cc1`, the RP-LC retention time worked out at 1150 s.
In turn, `CCc1ccc(S(=O)(=O)N2CCN(C3CCN(CCC(C)C)C3=O)CC2)cc1` (centres undefined) gave an RP-LC retention time of 736 s.
In turn, `COc1cccc(NC2=NS(=O)(=O)c3ccccc32)c1` showed an RP-LC retention time of 732 s.
As for `O=C(NC1CC1)c1ccc(OCC2CCN(C(=O)c3ccc(Cl)cc3)CC2)cc1`, the figure is 850 s; as for `COCCN1C(=O)[C@H]2CN(Cc3ccc(C(C)C)cc3)C[C@H]2C1=O`, 674 s.
On to `CCOc1cc(C(=O)Nc2ccc(F)cc2F)nc2c(F)cccc12`, for which the RP-LC retention time amounted to 1350 s.
For the compound `O=C(NCCc1cccs1)c1nnc(-c2ccc(S(=O)(=O)N3CCCC3)cc2)o1`, the RP-LC retention time was 889 s.
As for `CCCN1C(=O)COc2ccc(-c3csc(NC(=O)c4cccc(Br)c4)n3)cc21`, the RP-LC retention time is 1160 s.
Consider `COc1cccc(Oc2ncc(-c3cccc(C(=O)NC4CC4)c3)cn2)c1`, for which the RP-LC retention time was found to be 797 s.
As to `Cc1cc(C)c(S(=O)(=O)N(Cc2ccsc2)Cc2ccccn2)c(C)c1`, the RP-LC retention time is 1030 s.
As for `O=C(NCc1ccccc1)C1CCCN(c2nc3ccsc3c(=O)n2Cc2ccccc2)C1` (centres undefined), the figure is 902 s; as for `O=C(CCCn1c(=O)c2cccn2c2ccc(F)cc21)N1CCN(c2ccccn2)CC1`, 635 s.
